According to US20260182575A1, “MOLECULES HAVING PESTICIDAL UTILITY AND INTERMEDIATES AND PROCESSES RELATED THERETO” (CORTEVA AGRISCIENCE LLC, priority 2022, published 2026):
Where “and” joins values, the source holds several entries; their conditions need not be identical. Equal entries are not always repeated.

How the values were obtained:
Assay type in all cases: in vivo
[1] = tested on: Green Peach Aphid (Myzus persicae, MYZUPE, GPA); assay: Bioassay 1: green peach aphid, cabbage seedling foliar spray; details: for Average % Control AI: 3 days
Description: Bioassay 1: Green Peach Aphid (Myzus persicae, MYZUPE, “GPA”).
Stock solutions of F1 and various active ingredients were prepared initially at a concentration of 4 milligrams per milliliter (mg/mL) for F1 and 0.1 mg/mL for the active ingredients, respectively, using a 1:1 mixture of acetone:methanol as a diluent. Stock solutions were prepared with F1 as well as for each of the active ingredients individually. Test solutions were prepared from the stock solutions. Test solutions were prepared containing F1, the individual active ingredients, and mixtures of F1 with each of the active ingredients. The test solutions for F1 and the individual active ingredients were prepared by adding 750 microliters (μL) of stock solution to a 25 mL glass vial, then adding 750 μL of 1:1 acetone:methanol solvent, followed by the addition of 13.5 mL water with 0.025% Tween® 20 to create a 0.0005% (weight/volume (w/v)) solution. The test solutions containing mixtures of F1, and the individual active ingredients were prepared by adding 750 μL of the active ingredient stock solution to a 25 mL glass vial, followed by 750 μL of the F1 stock solution, then by the addition of 13.5 mL water with 0.025% Tween® 20 to create a test solution containing 0.0005% (w/v) F1 and 0.0005% (w/v) of the active ingredient. Each test solution was serially diluted to create desired doses of test solutions (0.0005% (w/v), 0.000125% (w/v), 0.00003125% (w/v), 0.0000078% (w/v), 0.00000195% (w/v), and 0.0000005% (w/v)). In test solutions containing mixtures of F1 and the active ingredients, the active ingredients were diluted as described above, but the concentration of F1 was held constant (0.04% (w/v)).
The test solutions were tested against GPA using the following procedure: cabbage seedlings, grown in 3-inch pots with 2-3 small (3-5 centimeter (cm)) true leaves, were used as test substrate. The seedlings were infested with 20-50 GPA (wingless adult and nymph stages) one day prior to chemical application. Four pots with individual seedlings were used for each treatment. A hand-held aspirator-type sprayer was used for spraying a solution to both sides of […] leaves until runoff. Reference plants (solvent check) were sprayed with the diluent only (0.025% Tween® 20 and 10% acetone:methanol (1:1) in water). Treated plants were held in a holding room for three days at approximately 25° C. and ambient relative humidity (RH about 20% to about 45%) prior to grading. Evaluation was conducted by counting the number of live aphids per plant under a microscope three days after treatment. Percent control was measured using Abbott's correction formula (W. S. Abbott, J. Econ. Entomol. 18 (1925), pp. 265-267) as follows:
where X=No. of live aphids on solvent check plants and Y=No. of live aphids on treated plants. In Table B1 the “Expected % Control” was calculated using the method described in Colby S. R., Weeds, 1967, 15, 20-22. Bioassay 2: Sweet Potato Whitefly (Bemisia tabaci, BEMITA, “SPW”).

[2] = tested on: Corn Earworm (Helicoverpa zea, HELIZE, CEW); assay: Bioassay 4: corn earworm, artificial diet, 128-cell tray; details: for Average % Control AI: AI alone; for Average % Control F1: F1 alone
Method in brief: (§1)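 Test solutions (0.0000004–0.04% w/v, i.e. 0.00005–5 μg/cm² on diet) were pipetted onto artificial lepidopteran diet and one 2nd-instar larva was placed per cell, 8 replicates per species, held at ~26° C. Live larvae were counted after 5 days; percent control used Abbott's correction against a solvent check.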

[3] = tested on: Fall Armyworm (Spodoptera frugiperda, LAPHFR, FAW); assay: Bioassay 4: fall armyworm, artificial diet, 128-cell tray; details: AI alone
Method in brief: as §1

[4] = AI alone at the rate of Wt Ratio F1:AI 1:640 (F1 0.04)
[5] = AI alone at the rate of Wt Ratio F1:AI 1:40000 (F1 0.04)
[6] = AI alone at the rate of Wt Ratio F1:AI 1:2564 (F1 0.04)

Compound	Average % Control AI [1, 4] [%]	Average % Control AI [1, 5] [%]	Average % Control AI ([2]; 0.000004 wt %) [%]	Average % Control AI ([2]; 0.00004 wt %) [%]	Average % Control AI ([3]; 0.000004 wt %) [%]	Average % Control AI ([3]; 0.00004 wt %) [%]	Average % Control AI ([1]; AI alone at the rate of Wt Ratio F1:AI 1:10256 (F1 0.04)) [%]	Average % Control AI [1, 6] [%]	Average % Control AI ([2]; 0.0004 wt %) [%]	Average % Control F1 ([1]; F1 alone, Wt % 0.04 (10^-6), cabbage spray, 3 days after treatment)	Average % Control F1 ([2]; 0.0000004 wt %) [%]	Average % Control F1 ([2]; 0.00004 wt %) [%]
CC1=NNC(=O)N(/N=C/c2cccnc2)C1 [Pymetrozine]	47.6	15.4	0.0	0.0	0.0	0.0	–	–	–	–	–	–
Cc1c(COC(=O)[C@@H]2[C@H](/C=C(\Cl)C(F)(F)F)C2(C)C)cccc1-c1ccccc1 (racemic) [Bifenthrin]	–	16.3	0.0	0.0	12.5	12.5	–	–	–	–	–	–
CN1COCN(Cc2cnc(Cl)s2)/C1=N\[N+](=O)[O-] [Thiamethoxam]	–	0.0	0.0	0.0	0.0	–	8.5	–	–	–	–	–
Chlorfenapyr	–	–	0.0	12.5	0.0	37.5	–	10.1	–	–	–	–
C[C@]1(COC(=O)C2CC2)[C@@H]2C[C@H](O)[C@@]3(C)Oc4cc(-c5cccnc5)oc(=O)c4[C@H](O)[C@@H]3[C@@]2(C)CC[C@@H]1OC(=O)C1CC1 [Afidopyropen]	–	–	0.0	0.0	0.0	0.0	–	–	–	–	–	–
COC(=O)N(C(=O)N1CO[C@@]2(C(=O)OC)Cc3cc(Cl)ccc3C2=N1)c1ccc(OC(F)(F)F)cc1 [Indoxacarb]	10.1	0.0	0.0	0.0	0.0	0.0	–	–	0.0	–	–	–
CON=CNC(=O)c1ccc(C2=NOC(c3cc(Cl)cc(Cl)c3)(C(F)(F)F)C2)cc1C (stereo not drawn) [Fluxametamide]	–	–	0.0	0.0	12.5	–	–	23.1	–	–	–	–
Cc1ccc(COCC(F)(F)F)c(N2C(=O)CS/C2=N\C(=O)Nc2ccc(-c3ncn(-c4ccc(OC(F)(F)F)cc4)n3)cc2F)c1 [F1]	–	–	–	–	–	–	–	–	–	8.8% and 7.1% and 15.8%	0.0	75.0
